{
  "source": "patent US20230000899A1",
  "about": "“ALGINATE, POLYLYSINE, AND SEED PRESERVATIVE NUTRITIONAL PRODUCT AND DIGESTIVE AID” (Reflux Gourmet LLC, priority 2021, published 2023)",
  "origin": "cited, not measured here",
  "system": "laboratory mice",
  "details": "certain laboratory mice; administered in high concentrations",
  "data": [
    {"smiles": "Oc1ccc(C=Cc2cc(O)cc(O)c2)cc1", "note": "[resveratrol]", "values": [
      {"measurement": "extension of life span", "value": "up to 50%"}
    ]}
  ]
}
